Measurements published in publication PMC8844822, “SARM1 is a multi-functional NAD(P)ase with prominent base exchange activity, all regulated bymultiple physiologically relevant NAD metabolites” (iScience, 2022).

Legend:
[1] = target: T1, hSARM1 full length (Homo sapiens, UniProt Q6SZW1); experiment: Base exchange reactions at neutral pH (HPLC); type: biochemical
T1 construct: Human recombinant SARM1 full length proteins (wild-type and E642A mutant); made in house
T1 sequence (Q6SZW1 28-724): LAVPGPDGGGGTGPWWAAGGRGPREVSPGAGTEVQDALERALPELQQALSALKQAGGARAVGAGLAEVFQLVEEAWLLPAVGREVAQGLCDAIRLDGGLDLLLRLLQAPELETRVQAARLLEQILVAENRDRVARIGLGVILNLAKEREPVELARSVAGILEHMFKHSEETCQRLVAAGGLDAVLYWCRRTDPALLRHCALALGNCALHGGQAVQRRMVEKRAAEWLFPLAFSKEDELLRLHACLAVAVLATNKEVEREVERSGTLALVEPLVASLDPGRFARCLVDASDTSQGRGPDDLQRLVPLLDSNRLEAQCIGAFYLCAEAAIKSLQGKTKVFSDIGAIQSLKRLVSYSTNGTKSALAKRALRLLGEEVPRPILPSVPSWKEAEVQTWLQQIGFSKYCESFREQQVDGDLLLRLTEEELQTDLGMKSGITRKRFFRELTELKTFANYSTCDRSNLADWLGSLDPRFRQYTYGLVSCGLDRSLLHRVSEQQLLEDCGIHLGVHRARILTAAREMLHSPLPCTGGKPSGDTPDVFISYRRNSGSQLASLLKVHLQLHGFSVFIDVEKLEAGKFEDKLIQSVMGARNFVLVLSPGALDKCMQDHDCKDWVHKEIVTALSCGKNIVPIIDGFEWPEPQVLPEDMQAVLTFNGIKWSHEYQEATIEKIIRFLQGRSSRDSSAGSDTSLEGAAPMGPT

[2] = target: T2, hCD38 (Homo sapiens, UniProt P28907); experiment: Base exchange reactions at neutral pH (HPLC); type: biochemical
T2 construct: a soluble fragment Val43-Ile300 with 6x-His tag at C terminus; 6xHis (C); purchased R&D Systems
T2 sequence (P28907 43-300): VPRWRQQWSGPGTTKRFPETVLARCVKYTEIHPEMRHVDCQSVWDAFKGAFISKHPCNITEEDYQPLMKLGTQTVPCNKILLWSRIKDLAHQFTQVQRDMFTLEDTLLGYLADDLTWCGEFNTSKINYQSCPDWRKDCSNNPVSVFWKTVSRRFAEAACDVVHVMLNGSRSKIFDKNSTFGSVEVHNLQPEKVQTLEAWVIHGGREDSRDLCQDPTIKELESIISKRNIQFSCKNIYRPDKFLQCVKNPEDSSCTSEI

[3] = system: DRG neurons; experiment: Base exchange products in DRG explant cultures (metabolite extraction, HPLC); type: cell-based, mouse; details: 4 h; for SARM1 dependence of base exchange product formation: wild-type vs Sarm1^−/− DRG cultures
Method: Dorsal Root Ganglia (DRG) were dissected from C57BL/6J (RRID IMSR_JAX:000664) or Sarm1^-/- (RRID MGI_3765957) E13.5-E14.5 mouse embryos. Explants were cultured in 35 mm tissue culture dishes pre-coated with poly-L-lysine (20 μg/ml for 1 h; Merck) and laminin (20 μg/ml for 1 h; Merck) in Dulbecco's Modified Eagle's Medium (DMEM, Gibco) with 1 % penicillin/streptomycin (Thermo Fisher Scientific), 33 ng/ml 2.5S NGF (Thermo Fisher Scientific) and 2% B27 (Gibco). 4 μM aphidicolin (Merck) was used to reduce proliferation and viability of small numbers of non-neuronal cells ([Loreto and Gilley, 2020]).
Wild-type and Sarm1^−/− DRG neurons were treated at DIV7 with 3-acetylpyridine (AcPyr) or vehicle (H2O), or with vacor or vehicle (H2O with 4% 1 N HCl). Proper drug concentrations and times of collection were determined first by dedicated experiments (see Figure 5A). At the indicated time-point, wild-type and Sarm1^−/− DRG whole explant cultures (typically 30-60 ganglia per condition) were collected, washed in ice-cold PBS and rapidly frozen in dry ice, and stored at −80°C until processed. Next extraction was carried out as reported by grinding in liquid N2, resuspending in HClO4 containing cAMP as internal standard for recovery calculations, sonicating, and neutralizing with K2CO3 ([Mori et al., 2014]). Next HPLC analyses to detect and measure the base exchange formed products, i.e. AcPyrAD or the vacorylated compound VAD, were carried out as described above in the paragraph “NADase assays”. In all samples, recovery yields from spiked cAMP were at least 96%. Furthermore, pellets after extraction of soluble nucleotides were treated as reported ([Mori et al., 2014]) to get reference protein contents to normalize the nucleotide levels. Protein concentrations were determined using the Bradford Reagent (Merck).

[4] = hSARM1 full length +NMN 0.2 mM, NAD […]
[5] = hSARM1 full length +NMN 0.2 mM, NAD […] alone or + free base
[6] = hSARM1 full length +NMN 0.2 mM, NAD […], relative to NAD alone without trigger
[7] = hSARM1 full length +NMN 0.2 mM, NADP […]
[8] = hSARM1 full length +NMN 0.2 mM, NADP […] alone or + free base
[9] = hSARM1 full length +NMN 0.2 mM, NADP […], relative to NADP alone without trigger
[10] = hSARM1 full length +VMN 0.05 mM, NAD […]
[11] = hSARM1 full length +VMN 0.05 mM, NAD […] alone or + free base
[12] = hSARM1 full length +VMN 0.05 mM, NAD […], relative to NAD alone without trigger
[13] = hSARM1 full length +VMN 0.05 mM, NADP […]
[14] = hSARM1 full length +VMN 0.05 mM, NADP […] alone or + free base
[15] = hSARM1 full length +VMN 0.05 mM, NADP […], relative to NADP alone without trigger
[16] = hSARM1 full length, no trigger, NAD […] alone or + AcPyr 2 mM / Vacor 0.5 mM / Na 2 mM, pH 7.5
[17] = hSARM1 full length, no trigger, NADP […] alone or + AcPyr 2 mM / Vacor 0.5 mM / Na 2 mM, pH 7.5
[18] = NAD […] alone or + AcPyr 2 mM / Vacor 0.5 mM / Na 2 mM
[19] = NADP […] alone or + AcPyr 2 mM / Vacor 0.5 mM / Na 2 mM

Row | SMILES | base exchange, share of products [1, 4] [%] | cyclization, share of products [1, 4] [%] | hydrolysis, share of products [1, 4] [%] | rate [1, 5] [mU/mg] | rate (relative fold) [1, 6] [fold] | base exchange, share of products [1, 7] [%] | hydrolysis, share of products [1, 7] [%] | rate [1, 8] [mU/mg] | rate (relative fold) [1, 9] [fold] | base exchange, share of products [1, 10] [%] | cyclization, share of products [1, 10] [%] | hydrolysis, share of products [1, 10] [%] | rate [1, 11] [mU/mg] | rate (relative fold) [1, 12] [fold] | base exchange, share of products [1, 13] [%] | hydrolysis, share of products [1, 13] [%] | rate [1, 14] [mU/mg] | rate (relative fold) [1, 15] [fold] | rate [1, 16] [mU/mg] | rate [1, 17] [mU/mg] | other results
1 | O=C(NCc1cccnc1)Nc1ccc([N+](=O)[O-])cc1 [Vacor, 1-(4-nitrophenyl)-3-(pyridin-3-ylmethyl)urea] | 20.86 | 7.06 | 72.08 | 180.1 ±8.72 | 8.26 ±0.400 | 23.61 | 76.34 | 134.7 ±5.67 | 9.16 ±0.386 | 44.98 | 4.75 | 50.27 | 206.2 ±1.12 | 9.45 ±0.051 | 35.56 | 63.94 | 148.5 ±4.61 | 10.11 ±0.314 | 29.5 ±2.55 | 22.9 ±1.68 | cyclization, share of products [1, 7]: ~ 0.05%; cyclization, share of products [1, 13]: 0.50%; base exchange products VAD(P) or NaAD(P), share of total products ([1]; hSARM1 full length, NAD or NADP 250 μM, vacor 0.5 mM, Na 2 mM): 20%–30%; rate [2, 18]: 6818 ±1376 mU/mg; rate [2, 19]: 3496 ±593 mU/mg; VAD formed ([3]; wild-type DRGs, vacor 50 μM): ~0.14 nmol/mg; SARM1 dependence of base exchange product formation [3]: found only in wild-type DRGs
2 | CC(=O)c1cccnc1 [AcPyr, 3-acetylpyridine] | 92.73 | 0.80 | 6.47 | 218.5 ±37.4 | 10.02 ±1.71 | 93.20 | 6.80 | 131.1 ±17.0 | 8.92 ±1.16 | 93.61 | 0.68 | 5.72 | 228.9 ±18.9 | 10.49 ±0.867 | 94.18 | 5.82 | 140.7 ±13.3 | 9.57 ±0.907 | 42.6 ±3.34 | 26.6 ±1.71 | rate [2, 18]: 8284 ±992 mU/mg; rate [2, 19]: 3255 ±787 mU/mg; AcPyrAD formed ([3]; wild-type DRGs, AcPyr 250 μM): 0.446 ± 0.021 nmol per mg of protein; SARM1 dependence of base exchange product formation [3]: not in treated Sarm1^−/− cultures
